Measured values: US8354539B2, “Indole derivatives as IKK2 inhibitors” (Glaxo Group Limited, priority 2009, dated 2013)

Assays:
[1] = test system: human peripheral blood mononuclear cells (PBMC); experiment: Human peripheral blood mononuclear cell assay (LPS stimulated TNFa production); type: cell-based; details: read-out: pIC50 potency, inhibition of TNF production (converted)
Experimental: The cellular potency of compounds was assessed in human peripheral blood mononuclear cells (PBMC) by measuring their impact on lipopolysaccharide (LPS) stimulated TNFa production. PBMCs were prepared from heparinised human blood from normal volunteers by centrifugation on hystopaque in Accuspin tubes at 800 g for 20 minutes. The cells were collected from the interface, washed by centrifugation (1300 g, 10 minutes) and resuspended in assay buffer (RPMI1640 containing 10% foetal calf serum, 1% L-glutamine and 1% penicillin/streptomycin) at 1×10^6 cells/ml. […] The supernatant was removed and the concentrations of TNF determined by electrochemiluminescence assay using the MSD technology.
20 μl supernatant from PBMC plates or 40 μl from whole blood plates was transferred using the Biomek FX to a 96 well High-Bind MSD assay plate precoated with anti-hTNF alpha capture antibody and containing 25 μl of MSD human serum cytokine assay diluent. […] The plates were shaken at room temperature for a further 1 hour before washing again and adding 150 μl of MSD Read Buffer T (2×). Plates were then read on the MSD Sector 6000 plate reader. For the PBMC assay, supernatant addition to the MSD plates was followed immediately by 20 μl of MSD detection antibody, the plates were then sealed and shaken for 2 hours before addition of 90 μl of MSD Read Buffer P (2.5×). Plates were read on the MSD Sector 6000. […]

[2] = test system: A549 SPAP cells; experiment: NFkB reporter assay; type: cell-based; details: Homo sapiens, TNF stimulated, read-out: pIC50 potency (converted)
Experimental: A 70% confluent T225 flask of A549 SPAP cells was harvested by centrifugation for 5 min at 200 g, resuspended in assay buffer (DMEM supplemented with 10% FCS 2×HI, 2 mM L-Glutamine, 1% Pen/Strep and Non essential amino acids) and diluted to 0.16×10^6/ml. 60 μl of cell solution was dispensed to each well of clear Nunc 384-well plates, containing 0.5 μl compound in neat DMSO at 140× the required final assay concentration. Plates were incubated for 1h at 37° C., 95% humidity, 5% CO2 before […] of TNF solution in assay buffer was added to give a final concentration of 3.2 ng/ml and then returned to the cell incubator for 15 h. Plates were equilibrated to room temperature for 1 h prior to the addition of 25 μl of pNPP buffer (1 M Diethanolamine pH 9.8, 0.5 mM MgCl2, 0.28M NaCl, 2 mg/ml pNPP) to each well of assay plates. The plates were covered to protect the reagents from light, and then incubated at room temperature for approximately 1 hour before reading them on an Ascent using a 405 nm single filter.
All data was normalized to the mean of 16 high and 16 low control wells on each plate. A four parameter curve fit of the following form was then applied

[3] = test system: LPS induced neutrophilia; experiment: Inhaled LPS induced neutrophilia in the male CD rat; type: in vivo; details: dose of 300 ug/kg i.t.
Experimental: Male CD rats (150-250 g) were anaesthetised with isoflurane (5%, 2 L/min O2, 1 L/min […]) and positioned on their back on a dosing table at a 35 degree angle, with a metal rod placed under their incisors to keep them in place. A light was angled against the outside of the throat to highlight the trachea. The mouth was opened to visualise the upper opening of the airway and a portex cannula was introduced into the trachea via a blunt dosing needle. 200 ul of compound formulation was then injected into the airways. After dosing, animals were placed in a supine position during recovery from anaesthesia.
Approximately thirty minutes following dosing of compound or vehicle, the rats were placed into a cloud chamber and exposed to an aerosol of lipopolysaccharide, generated from a 150 ug/ml solution for 15 min.
Four hours following LPS challenge the animals were culled with an overdose of sodium pentobarbitone given intraperitoneally. The trachea was exposed and a small incision made, into which a tube was inserted towards the lungs. The lungs were then washed with 3 times with 5 mls heparinised (10 U/ml) PBS.
The bronchoalveolar lavage fluid (BALF) samples were centrifuged at 1300 rpm for 7 minutes. […] The total cells were also counted from the resuspension using a Sysmex counter. From these two counts, the total numbers of neutrophils in the BALF were determined.

COCCS(=O)(=O)N1CCC(c2c[nH]c3c(C(N)=O)cc(-c4ccc5c(c4)CN(C(C)C)C5)cc23)CC1 [Compound of formula (I), 5-[2-(1-methylethyl)-2,3-dihydro-1H-isoindol-5-yl]-3-(1-{[2-(methyloxy)ethyl]sulfonyl}-4-piperidinyl)-1H-indole-7-carboxamide]
IC50 [1]: < 0.0316 µM
IC50 [2]: < 0.0316 µM
inhibition of LPS induced neutrophilia [3]: greater than 75%
